In US20170306322A1, “METHODS AND MATERIALS FOR IDENTIFYING COMPOUNDS PROMOTING TRA[…]-THROUGH OF NONSENSE MUTATIONS” (Evolva SA, priority 2013, published 2017):
Entries after “also recorded” stand apart in the source; their conditions may differ.

Experiments:
[1] = system: premature stop codon in APC; assay: Liquid suppression test, strain EFSC2686, APC premature stop codon URA3 reporter; format: cell-based, yeast
Description: Liquid suppression tests were also conducted with a different aminoglycoside, paromomycin. Read-through of the premature stop codon in APC was also observed after liquid cultivation of the strain in the presence of increasing concentrations of the aminoglycoside paromomycin. Here, strain EFSC2686 was grown in SCgal-ura media in the presence of increasing amounts of drug (0-500 uM) and growth rate was monitored on a daily basis. The presence of ≧250 uM paromomycin supports growth in SCgal media lacking uracil after 4 days incubation (see FIG. 3C).

[2] = system: APC premature stop codon luciferase reporter; assay: Dual Luciferase Assay, yeast APC premature stop codon Fluc reporter; format: cell-based; details: haploid and diploid strains (EFSC2740), compared to vehicle only (DMSO), triplicate
Description: To assess functionality of the Fluc reporter system, a luciferase activity protocol for the Dual Luciferase® Assay kit (Promega) was optimized to be able to test yeast strains in 96-well format. A representative experiment is outlined here. The yeast were incubated for 30° C. overnight. The luciferase assay was performed according to manufacturer's recommended protocol. Briefly, yeast cells were resuspended in SCgal culture media and measured at A600. A 10 uL sample was transferred to a white-opaque-bottom 96-well plate, mixed with 50 uL of passive lysis buffer and incubated at room-temperature for 20-30 minutes with gentle shaking. Next, 50 uL of luciferase assay reagent II and 50 uL of Stop & Glo® reagent were added. The plate was read in a plate reader using a dual luciferase program. The remaining yeast culture was maintained at 30° C. and the luciferase assays was performed daily.
The results of the above Dual Luciferase® Assay experiment are shown in FIG. 4 (samples were tested in triplicate and data was analyzed by GraphPad® with error bars showing mean with 95% confidence interval). Here, 3 different integration sites for the Fluc reporter were analyzed both in a haploid assay strain and in a diploid setting in the presence of aminoglycosides G418 and paromomycin. […]

[3] = system: APC premature stop codon C1450X; assay: Yeast APC premature stop codon URA3/ADE2 reporter spot test on plates; format: cell-based; details: 20 ug/ml G418, spot test, 3-5 days at 30° C., Pgal1-APCmut-URA3/ADE2 strain
Excerpt: A nucleic acid sequence containing a nonsense mutation was introduced into a yeast expression construct under the transcriptional control of a promoter e.g., an inducible promoter such as a galactose inducible promoter. The nucleic acid sequence containing the nonsense mutation was fused to a first marker gene such as URA3 and/or ADE2 (or other gene that results in an auxotroph if the gene is not transcribed and translated). The plasmid was integrated into an intergenic region in the genome of a modified yeast strain harboring deletion of ura3 and/or ade2 using conventional LiAc yeast transformation methods. Integrants were selected on media plates containing the antibiotic Hygromycin B or lacking histidine selecting for the marker present on the expression plasmid. Integrated strains were incubated with test compounds and plated on relevant growth media. Suitable test compounds include, for example, libraries of small molecules or expression libraries. […] Production of URA3 allowed the yeast cells to grow and form colonies on media lacking uracil after 2-4 days incubation at 30° C. Production of ADE2 conferred a white coloration of the yeast colonies and allowed the yeast cells to grow and form colonies on media plates lacking adenine after 2-4 days incubation at 30° C. […]
Next, the yeast strains were tested for read-through of the stop codon in the presence of the aminoglycoside G418. […]

[4] = system: native stop codons in human genes (V-ATPase, Mdm2, ArhGAP1, DAT and PKCb, and striatin); assay: Yeast URA3 reporter spot test with native stop codons of human genes; format: cell-based
Excerpt: In a similar set-up, read-through of 6 native stop codons in human genes (V-ATPase, Mdm2, ArhGAP1, DAT and PKCb, and striatin) was examined in front of the URA3 reporter system. […] A representative spot-test analysis is shown in FIG. 3B, where a strain containing the native stop codon of the human striatin gene was compared with the strain containing the APC premature stop codon mutant.

[5] = system: P53 STOP (TAA198), P53 STOP (TAG221), P53 STOP (TGA196); assay: Yeast p53 stop codon URA3 reporter suppression on SCgal-ura plates; format: cell-based
Description: In addition to the APC stop-codon assay, other oncology targets including p53 were analyzed. Here, yeast strains were engineered with PGAL1-P53 STOP (TAA198)-URA3 (EFSC2231 and EFSC2233), PGAL1-P53 STOP (TAG221)-URA3 (EFSC2186 and EFSC2200) and PGAL1-P53 STOP (TGA196)-URA3 (EFSC2232 and EFSC2201) reporter integrated at the PRP5 locus. The strains were tested for suppression with G418 on SCgal-ura plates supplemented with increasing G418 concentrations.

Row | Structure (SMILES) | suppression of the APC stop codon, production of URA3 protein ([1]; liquid cultivation, FIG. 3C) | paromomycin concentration that supports growth in SCgal media lacking uracil ([1]; strain EFSC2686, 0-500 uM tested, after 4 days incubation) [µM] | Firefly luciferase activity [2] | read-through of the APC premature stop codon (growth on SCgal-ura plates) [3] | selectivity of suppression, premature versus native stop codons ([4]; 20 ug/ml G418, APC mutant versus 6 native stop codons) | read-through of native stop codons (growth on SCgal-uracil) ([4]; SCgal-uracil + 20 ug/ml G418, 6 native stop codons) | order of suppression response by stop codon ([5]; G418, SCgal-ura plates) | expression of Ura3p, growth on SCgal-ura3 plates ([5]; increasing G418 concentrations, TAA198, TAG221 and TGA196 strains, all cases)
1 | NC[C@@H]1O[C@H](O[C@H]2[C@@H](O)[C@H](O[C@@H]3[C@@H](O)[C@H](N)C[C@H](N)[C@H]3O[C@H]3O[C@H](CO)[C@@H](O)[C@H](O)[C@H]3N)O[C@@H]2CO)[C@H](N)[C@@H](O)[C@@H]1O [paromomycin] | leads to suppression of the APC stop codon and production of URA3 protein | ≥ 250 | able to induce luciferase activity | – | – | – | – | –
2 | CN[C@@H]1[C@@H](O)[C@@H](O[C@@H]2[C@@H](O)[C@H](O[C@H]3O[C@H]([C@@H](C)O)[C@@H](O)[C@H](O)[C@H]3N)[C@@H](N)C[C@H]2N)OC[C@]1(C)O [G418] | – | – | able to induce luciferase activity; also recorded: robust and significant Firefly luciferase activity | allows translation read-through of the APC gene; also recorded: triggered read-through of the stop codon | selective for premature stop codons | no detectable read-through of stop codon was observed | TGA>TAG>TAA | able to trigger expression of Ura3p
